From patent US20230022157A1 (Achillion Pharmaceuticals, Inc., priority 2018, published 2023) come the findings set out here.

The target in the first experiment is T1, Human Factor D (Homo sapiens, UniProt P00746).
T1 construct: purified from human serum; purchased Complement Technology, Inc; host or cells: human serum (natural protein, not recombinant)
T1 sequence (P00746 26-253): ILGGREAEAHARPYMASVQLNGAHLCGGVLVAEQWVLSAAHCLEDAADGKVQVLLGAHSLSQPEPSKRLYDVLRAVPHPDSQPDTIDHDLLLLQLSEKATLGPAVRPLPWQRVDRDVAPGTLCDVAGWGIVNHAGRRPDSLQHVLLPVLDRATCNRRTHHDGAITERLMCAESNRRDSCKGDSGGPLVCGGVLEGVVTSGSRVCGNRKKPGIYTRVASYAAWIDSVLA
Nature of the experiment: Human Factor D Assay. The experiment is classed as biochemical. To be noted: Human Factor D 80 nM, substrate Z-L-Lys-SBzl, assay of Example 3; read-out: IC50 (Stars). An outline of the steps: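 Serum-purified human factor D (80 nM final) preincubated 5 min at room temperature with test compound in 50 mM Tris, 1M NaCl, pH 7.5. Z-L-Lys-SBzl substrate and DTNB then added, each at 100 μM final. IC50 from nonlinear regression of reaction rate against compound concentration.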
`CC(=O)c1nn(CC(=O)N2C[C@H](F)C[C@H]2C(=S)Nc2cccc(Br)n2)c2ccc(-c3cnc(C)nc3)cc12` [Compound 36, (2S,4R)-1-(2-(3-Acetyl-5-(2-methylpyrimidin-5-yl)-1H-indazol-1-yl)acetyl)-N-(6-bromopyridin-2-yl)-4-fluoropyrrolidine-2-carbothioamide]: the IC50 is under 1 µM.
In the case of `CC(=O)c1nn(CC(=O)N2C[C@H](F)C[C@H]2C(=O)Nc2cccc(Br)n2)c2ccc(-c3ccc(C)nn3)cc12` [Compound 35, (2S,4R)-1-(2-(3-Acetyl-5-(6-methylpyridazin-3-yl)-1H-indazol-1-yl)acetyl)-N-(6-bromopyridin-2-yl)-4-fluoropyrrolidine-2-carboxamide], the IC50 was under 1 µM.
Same read-out and setting: for `CC(=O)c1nn(CC(=O)N2[C@H](C(=O)NCCc3ccncc3)C[C@@]3(C)C[C@@H]23)c2c(C)cc(-c3cnc(C)nc3)cc12` [Compound 8, (1R,3S,5R)-2-(2-(3-Acetyl-7-methyl-5-(2-methylpyrimidin-5-yl)-1H-indazol-1-yl)acetyl)-5-methyl-N-(2-(pyridin-4-yl)ethyl)-2-azabicyclo[3.1.0]hexane-3-carboxamide] the value was 1 to 10 µM.

The same experiment, now with this note: Human Factor D 80 nM, substrate Z-L-Lys-SBzl; Table 2; read-out: IC50 (Stars).
Turning to `COC(C)(C)CNC(=O)[C@@H]1C[C@@]2(C)C[C@H]2N1C(=O)Cn1nc(C(C)=O)c2cc(-c3cnc(C)nc3)cc(C)c21` [Compound 87, (1R,3S,5R)-2-{2-[3-acetyl-7-methyl-5-(2-methylpyrimidin-5-yl)indazol-1-yl]acetyl}-N-(2-methoxy-2-methylpropyl)-5-methyl-2-azabicyclo[3.1.0]hexane-3-carboxamide], the IC50 was under 1 µM.
The same measure, in the same setting: next, `CC(=O)c1cn(CC(=O)N2C[C@H]3C[C@H]3[C@H]2C(=O)Nc2nc(Br)c(F)cc2C)c2c(C3CC3)cc(-c3cnc(C)nc3)cc12` [Compound 163]: under 1 µM.
On the same count and under the same terms, for `CC(=O)c1cn(CC(=O)N2[C@H](C(=O)Nc3nc(C(F)(F)F)ccc3C)C[C@@]3(C)C[C@@H]23)c2c(C)cc(-c3cnc4cc(CO)nn4c3)cc12` [Compound 226, (1R,3S,5R)-2-(2-(3-acetyl-5-(2-(hydroxymethyl)pyrazolo[1,5-a]pyrimidin-6-yl)-7-methyl-1H-indol-1-yl)acetyl)-5-methyl-N-(3-methyl-6-(trifluoromethyl)pyridin-2-yl)-2-azabicyclo[3.1.0]hexane-3-carboxamide] the value was under 1 µM; for `COc1ncc(-c2cc(C)c3c(c2)c(C(C)=O)nn3CC(=O)N2[C@H](C(=O)Nc3nc(Br)ccc3C)C[C@@]3(C)C[C@@H]23)cn1` [Compound 52, (1R,3S,5R)-2-(2-(3-acetyl-5-(2-methoxypyrimidin-5-yl)-7-methyl-1H-indazol-1-yl)acetyl)-N-(6-bromo-3-methylpyridin-2-yl)-5-methyl-2-azabicyclo[3.1.0]hexane-3-carboxamide], under 1 µM; for `Cc1ncc(-c2cc3c(C(N)=O)nn(CC(=O)N4[C@H](C(=O)Nc5nc(Br)ccc5C5CC5)C[C@@]5(C)C[C@@H]45)c3c(C)n2)cn1` [Compound 112, 1-{2-[3-(6-Bromo-3-cyclopropyl-pyridin-2-ylcarbamoyl)-5-methyl-2-aza-bicyclo[3.1.0]hex-2-yl]-2-oxo-ethyl}-7-methyl-5-(2-methyl-pyrimidin-5-yl)-1H-pyrazolo[3,4-c]pyridine-3-carboxylic acid amide], under 1 µM.
On the same count and under the same terms, for `COc1cc(Br)nc(NC(=O)[C@@H]2C[C@@]3(C)C[C@H]3N2C(=O)Cn2nc(C(C)=O)c3cc(-c4cnc(CO)nc4)cc(C)c32)c1` [Compound 65, (1R,3S,5R)-2-(2-(3-acetyl-5-(2-(hydroxymethyl)pyrimidin-5-yl)-7-methyl-11H-indazol-1-yl)acetyl)-N-(6-bromo-4-methoxypyridin-2-yl)-5-methyl-2-azabicyclo[3.1.0]hexane-3-carboxamide] the value was under 1 µM.
As for `CC(=O)c1nn(CC(=O)N2[C@H](C(=O)NCC3CCc4ccccc4C3)C[C@@]3(C)C[C@@H]23)c2c(C)cc(-c3cnc(C)nc3)cc12` (stereo partly drawn) [Compound 117, (1R,3S,5R)-2-{2-[3-acetyl-7-methyl-5-(2-methylpyrimidin-5-yl)indazol-1-yl]acetyl}-5-methyl-N-(1,2,3,4-tetrahydronaphthalen-2-ylmethyl)-2-azabicyclo[3.1.0]hexane-3-carboxamide], the concentration for half-maximal inhibition (IC50) is under 1 µM.
The same measure, in the same setting: for `CC(=O)c1nn(CC(=O)N2[C@H](C(=O)N[C@@H]3CCCC[C@@H]3C)C[C@@]3(C)C[C@@H]23)c2c(C)cc(-c3cnc(C)nc3)cc12` [Compound 190, (1R,3S,5R)-2-{2-[3-acetyl-7-methyl-5-(2-methylpyrimidin-5-yl)indazol-1-yl]acetyl}-5-methyl-N-[(1R,2S)-2-methylcyclohexyl]-2-azabicyclo[3.1.0]hexane-3-carboxamide] the value was under 1 µM; for `CC(=O)c1nn(CC(=O)N2[C@H](C(=O)Nc3nc(C(C)(F)F)ccc3C)C[C@@]3(C)C[C@@H]23)c2c(C)cc(-c3cnc(C)nc3)cc12` [Compound 130, (1R,3S,5R)-2-(2-(3-Acetyl-7-methyl-5-(2-methylpyrimidin-5-yl)-1H-indazol-1-yl)acetyl)-N-(6-(1,1-difluoroethyl)-3-methylpyridin-2-yl)-5-methyl-2-azabicyclo[3.1.0]hexane-3-carboxamide], under 1 µM; for `CC(=O)c1nn(CC(=O)N2[C@H]3CC[C@H](C3)[C@H]2C(=O)Nc2nc(C(F)(F)F)ccc2C)c2c(C)cc(-c3cncc(C4(C(=O)O)CC4)c3)cc12` [Compound 128, 1-(5-(3-Acetyl-7-methyl-1-(2-((1S,3S,4R)-3-((3-methyl-6-(trifluoromethyl)pyridin-2-yl)carbamoyl)-2-azabicyclo[2.2.1]heptan-2-yl)-2-oxoethyl)-1H-indazol-5-yl)pyridin-3-yl)cyclopropane-1-carboxylic acid], under 1 µM.
As to `CC(=O)c1nn(CC(=O)N2[C@H](C(=O)Nc3cncc(Br)n3)C[C@@]3(C)C[C@@H]23)c2c(C)cc(-c3cnc(C(=O)O)nc3)cc12` [Compound 43, 5-(3-acetyl-1-(2-((1R,3S,5R)-3-((6-bromopyrazin-2-yl)carbamoyl)-5-methyl-2-azabicyclo[3.1.0]hexan-2-yl)-2-oxoethyl)-7-methyl-1H-indazol-5-yl)pyrimidine-2-carboxylic acid], the half-inhibitory concentration (IC50) was under 1 µM.
The same measure, in the same setting: next, `CC(=O)c1cn(CC(=O)N2[C@H](C(=O)Nc3nc(Br)ccc3C)C[C@@]3(C)C[C@@H]23)c2c(C)cc(-c3cnc(C(C)F)nc3)cc12` (stereo partly drawn) [Compound 216, (1R,3S,5R)-2-(2-(3-acetyl-5-(2-(1-fluoroethyl)pyrimidin-5-yl)-7-methyl-1H-indol-1-yl)acetyl)-N-(6-bromo-3-methylpyridin-2-yl)-5-methyl-2-azabicyclo[3.1.0]hexane-3-carboxamide]: under 1 µM; `Cc1ncc(-c2cc3c(C(N)=O)nn(CC(=O)N4[C@H](C(=O)Nc5nc(Br)c(F)cc5C)C[C@@]5(C)C[C@@H]45)c3c(CO)n2)cn1` [Compound 184, 1-(2-((1R,3S,5R)-3-((6-bromo-5-fluoro-3-methylpyridin-2-yl)carbamoyl)-5-methyl-2-azabicyclo[3.1.0]hexan-2-yl)-2-oxoethyl)-7-(hydroxymethyl)-5-(2-methylpyrimidin-5-yl)-1H-pyrazol[3,4-c]pyridine-3-carboxamide]: under 1 µM.
Regarding `CC(=O)c1cn(CC(=O)N2[C@H](C(=O)Nc3nc(C(F)(F)F)ccc3C)C[C@@]3(C)C[C@@H]23)c2c(C)cc(-c3cnc4c(O)c(C)nn4c3)cc12` [Compound 231, (1R,3S,5R)-2-(2-(3-acetyl-5-(3-hydroxy-2-methylpyrazolo[1,5-a]pyrimidin-6-yl)-7-methyl-1H-indol-1-yl)acetyl)-5-methyl-N-(3-methyl-6-(trifluoromethyl)pyridin-2-yl)-2-azabicyclo[3.1.0]hexane-3-carboxamide], the IC50 was under 1 µM.
The same measure, in the same setting: next, `CC(=O)c1nn(CC(=O)N2[C@H](C(=O)NCC3(C)CCCCC3)C[C@@]3(C)C[C@@H]23)c2c(C)cc(-c3cnc(C)nc3)cc12` [Compound 90, (1R,3S,5R)-2-{2-[3-acetyl-7-methyl-5-(2-methylpyrimidin-5-yl)indazol-1-yl]acetyl}-5-methyl-N-[(1-methylcyclohexyl)methyl]-2-azabicyclo[3.1.0]hexane-3-carboxamide]: under 1 µM.
The same measure, in the same setting: for `CC(=O)c1cn(CC(=O)N2[C@H](C(=O)Nc3ccc(C)c(Br)n3)C[C@@]3(C)C[C@@H]23)c2c(C)cc(-c3cnc(C)nc3)cc12` [Compound 156, (1R,3S,5R)-2-(2-(3-acetyl-7-methyl-5-(2-methylpyrimidin-5-yl)-1H-indol-1-yl)acetyl)-N-(6-bromo-5-methylpyridin-2-yl)-5-methyl-2-azabicyclo[3.1.0]hexane-3-carboxamide] the value was under 1 µM.
On the same count and under the same terms, for `CC(=O)c1cn(CC(=O)N2[C@H](C(=O)Nc3nc(C(F)(F)F)ccc3C)C[C@@]3(C)C[C@@H]23)c2ccc(-c3cnc4cc(C)nn4c3)cc12` [Compound 203, (1R,3S,5R)-2-(2-(3-acetyl-5-(2-methylpyrazolo[1,5-a]pyrimidin-6-yl)-1H-indol-1-yl)acetyl)-5-methyl-N-(3-methyl-6-(trifluoromethyl)pyridin-2-yl)-2-azabicyclo[3.1.0]hexane-3-carboxamide] the value was under 1 µM; for `CC(=O)c1nn(CC(=O)N2C[C@H]3C[C@H]3[C@H]2C(=O)Nc2nc(Br)ccc2C)c2c(C)cc(-c3cnc(CO)nc3)cc12` [Compound 61, (1R,2S,5S)-3-(2-(3-acetyl-5-(2-(hydroxymethyl)pyrimidin-5-yl)-7-methyl-11H-indazol-1-yl)acetyl)-N-(6-bromo-3-methylpyridin-2-yl)-3-azabicyclo[3.1.0]hexane-2-carboxamide], under 1 µM.
